Source: patent publication US20260294995A1, “COMPOSITION FOR ORAL USE WITH HMG-COA REDUCTASE ENZYME INHIBITING ACTIVITY” (DIFASS INTERNATIONAL S.P.A., priority 2023, published 2026)

Assays:
HMG-CoA reductase [1] = target: T1, HMG-CoA reductase (Rattus norvegicus, UniProt P51639); details: 25 μM; glial cells; cited from earlier work
T1 construct: in an in vitro model with glial cells; host or cells: C6 glioma cells (endogenous enzyme, inferred)
T1 sequence (P51639 1-887): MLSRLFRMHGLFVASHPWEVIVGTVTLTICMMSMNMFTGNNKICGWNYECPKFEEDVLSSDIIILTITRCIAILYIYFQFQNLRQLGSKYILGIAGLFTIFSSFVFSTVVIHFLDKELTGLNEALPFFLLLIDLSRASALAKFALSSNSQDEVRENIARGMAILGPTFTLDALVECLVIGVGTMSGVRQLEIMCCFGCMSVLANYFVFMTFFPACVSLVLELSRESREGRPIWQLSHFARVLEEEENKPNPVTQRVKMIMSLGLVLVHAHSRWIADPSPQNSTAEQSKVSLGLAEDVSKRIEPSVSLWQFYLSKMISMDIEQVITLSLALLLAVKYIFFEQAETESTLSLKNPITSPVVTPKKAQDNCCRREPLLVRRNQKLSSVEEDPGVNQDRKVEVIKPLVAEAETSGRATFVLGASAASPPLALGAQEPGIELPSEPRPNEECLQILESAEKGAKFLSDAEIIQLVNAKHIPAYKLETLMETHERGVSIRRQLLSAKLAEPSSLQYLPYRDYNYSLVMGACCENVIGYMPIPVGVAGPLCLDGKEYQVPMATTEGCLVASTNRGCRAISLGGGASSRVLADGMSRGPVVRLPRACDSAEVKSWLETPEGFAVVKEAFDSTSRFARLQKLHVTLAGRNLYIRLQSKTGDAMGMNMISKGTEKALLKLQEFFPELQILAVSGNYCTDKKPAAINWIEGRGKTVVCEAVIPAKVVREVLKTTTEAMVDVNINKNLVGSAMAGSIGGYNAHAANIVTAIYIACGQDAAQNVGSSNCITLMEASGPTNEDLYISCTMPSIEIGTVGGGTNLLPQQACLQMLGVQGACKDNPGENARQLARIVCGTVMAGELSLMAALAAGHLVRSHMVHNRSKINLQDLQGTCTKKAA

HMG-COA reductase [2] = details: rat hepatocytes, in vitro; cited from earlier work
HMG-CoA reductase [3] = target: T2, HMG-CoA reductase (Homo sapiens, UniProt P04035); assay: HMG-CoA reductase inhibition, spectrophotometric (absorbance at 340 nm, oxidation of NADPH); format: biochemical; details: for Percentage inhibition HMGR: positive control
T2 construct: oxidation of NADPH by the catalytic subunit of HMG-CoA reductase; purchased
T2 sequence (P04035 426-888 limits assumed): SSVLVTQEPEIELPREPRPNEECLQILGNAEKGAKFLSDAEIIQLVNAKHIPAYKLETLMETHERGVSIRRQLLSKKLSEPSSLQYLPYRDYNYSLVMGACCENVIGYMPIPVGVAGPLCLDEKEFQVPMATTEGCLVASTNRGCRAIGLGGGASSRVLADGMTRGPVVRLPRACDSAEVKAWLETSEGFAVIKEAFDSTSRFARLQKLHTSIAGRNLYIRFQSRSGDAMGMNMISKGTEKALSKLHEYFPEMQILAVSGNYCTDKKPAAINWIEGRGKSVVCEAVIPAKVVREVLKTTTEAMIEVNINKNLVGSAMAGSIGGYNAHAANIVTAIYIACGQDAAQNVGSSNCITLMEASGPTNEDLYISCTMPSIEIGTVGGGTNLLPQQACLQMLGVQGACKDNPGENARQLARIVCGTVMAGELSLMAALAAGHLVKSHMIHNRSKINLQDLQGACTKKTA
Description: The screening was performed with an analysis kit that evaluates inhibition of HMG-CoA reductase. The assay was based on spectrophotometric measurement of the reduction of absorbance at 340 nm, which represents oxidation of NADPH by the catalytic subunit of HMG-CoA reductase in the presence of the HMG-COA substrate. The reaction is as follows: HMG-CoA+2NADPH+2H^+ ? mevalonate+2NADP^++CoA-SH. Modulation of the activity of the enzyme, and in particular its inhibition, was calculated as % variation relative to the activity measured under the control condition, i.e. in the absence of any inhibitor. The biochemical system was verified with the use of a positive control, pravastatin, at the doses of 212.5 mg (100 mM), 80 mg, 40 mg and 20 mg.
A first test session was conducted with pravastatin as positive control at the theoretical concentration calculated as administration dose in the systemic circulation (5 L, mean blood volume of an adult weighing about 70 kg);
Each test was conducted in triplicate, and the compounds were tested at different concentrations. […]

[4] = oral doses from 100 mg to 2800 mg; cited from earlier work
HMG-CoA reductase [5] = target: T3, HMG-CoA reductase (Homo sapiens, UniProt P04035); details: 10 μg/mL; compared with pravastatin; cited from earlier work
T3 sequence (P04035 1-888): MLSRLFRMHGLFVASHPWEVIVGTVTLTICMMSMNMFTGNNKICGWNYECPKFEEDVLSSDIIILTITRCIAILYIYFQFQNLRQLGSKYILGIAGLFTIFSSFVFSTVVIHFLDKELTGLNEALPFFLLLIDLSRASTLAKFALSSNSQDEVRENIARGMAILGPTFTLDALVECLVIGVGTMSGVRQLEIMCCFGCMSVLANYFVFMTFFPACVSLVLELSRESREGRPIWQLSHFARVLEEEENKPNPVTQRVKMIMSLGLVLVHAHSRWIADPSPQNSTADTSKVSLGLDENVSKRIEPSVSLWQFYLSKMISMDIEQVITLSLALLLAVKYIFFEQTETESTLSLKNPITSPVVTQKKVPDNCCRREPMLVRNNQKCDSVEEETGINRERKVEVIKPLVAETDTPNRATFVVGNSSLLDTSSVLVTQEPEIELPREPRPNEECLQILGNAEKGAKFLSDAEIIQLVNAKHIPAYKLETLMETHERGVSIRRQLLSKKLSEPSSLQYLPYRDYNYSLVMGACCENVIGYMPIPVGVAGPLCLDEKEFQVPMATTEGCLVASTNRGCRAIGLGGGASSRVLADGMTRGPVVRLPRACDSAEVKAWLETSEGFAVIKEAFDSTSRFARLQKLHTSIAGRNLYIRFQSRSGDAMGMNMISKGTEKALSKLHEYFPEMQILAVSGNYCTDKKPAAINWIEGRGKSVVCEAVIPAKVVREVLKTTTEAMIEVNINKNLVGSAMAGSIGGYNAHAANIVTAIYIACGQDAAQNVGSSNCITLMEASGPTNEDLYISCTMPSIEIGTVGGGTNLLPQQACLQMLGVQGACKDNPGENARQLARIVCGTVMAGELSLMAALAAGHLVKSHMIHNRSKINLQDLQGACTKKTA

[6] = 250 mg daily for three months, patients with metabolic syndrome; cited from earlier work
[7] = 2022 meta-analysis; dose an essential factor; cited from earlier work

In the case of OCCc1ccc(O)c(O)c1 [hydroxytyrosol], the “reduction of HMG-COA reductase activity” value (HMG-CoA reductase [1]) is listed as 16% and the “synthesis of fatty acids and cholesterol” value (HMG-CoA reductase [1]) is listed as “downregulating effect”.

In the case of C/C=C1/[C@H](O[C@@H]2O[C@H](CO)[C@@H](O)[C@H](O)[C@H]2O)OC=C(C(=O)OC)[C@H]1CC(=O)OCCc1ccc(O)c(O)c1 [oleuropein], the “activity of HMG-COA reductase” value (HMG-COA reductase [2]) is listed as “reduces the activity of hydroxymethylglutaryl-CoA reductase” and the cholesterol synthesis (HMG-COA reductase [2]) is listed as “reduction in cholesterol synthesis”.

For CC[C@H](C)C(=O)O[C@H]1C[C@H](O)C=C2C=C[C@H](C)[C@H](CC[C@@H](O)C[C@@H](O)CC(=O)O)[C@H]21 [Pravastatin, pravastatin], the “Percentage inhibition HMGR” value (HMG-CoA reductase [3]; 20 mg (theoretical concentration of dose in 5 L blood)) was 56.3%, the “Percentage inhibition HMGR” value (HMG-CoA reductase [3]; 40 mg (theoretical concentration of dose in 5 L blood)) was 68.9% and the “Percentage inhibition HMGR” value (HMG-CoA reductase [3]; 80 mg (theoretical concentration of dose in 5 L blood)) was 85.9%.

In the case of O=C(O)[C@H]1O[C@@H](Oc2cc3oc(-c4ccccc4)cc(=O)c3c(O)c2O)[C@H](O)[C@@H](O)[C@@H]1O [baicalin], the “proportionality in absorption depending on the oral dose” value [4] is listed as “did not indicate a proportionality in absorption” and the “HMG-COA reductase inhibitory activity” value (HMG-CoA reductase [5]) is listed as “lower than with pravastatin”.

For Oc1ccc(C=Cc2cc(O)cc(O)c2)cc1 [Resveratrol, resveratrol], the inhibition at 0.0102 µg/mL (HMG-CoA reductase [3]; Test 1, 0.0102 μg/ml, 1:200 dilution, oral dose 10 mg, read-out: Percentage inhibition HMGR) is listed as 0%, the total cholesterol level [6] is listed as “reduces the total cholesterol level” and the “total cholesterol and LDL cholesterol levels” value [7] is listed as “can be useful to reduce total cholesterol and LDL cholesterol levels”.
